Broadly, the pEC50 is −log10 of the EC50, conventionally taken in molar units.

Each structure is given as a SMILES string. pEC50: −log10 of the molar value.

What all share (experiment): Apparent affinity (EC50) of energy transfer probes by titration onto live HEK293 cells expressing kinase/Nluc fusions (Table S1)
Assay type in all cases: binding

In assay [1] the target is full-length kinase/Nluc fusion proteins (Homo sapiens, UniProt P49840). To be noted: GSK3A, Nluc N; read-out: Probe EC50.
The target in assay [2] is full-length kinase/Nluc fusion proteins (Homo sapiens, UniProt Q9UPZ9). The settings on record: ICK, Nluc N; read-out: Probe EC50.
Assay [3] has as its target full-length kinase/Nluc fusion proteins (Homo sapiens, UniProt Q92772). To be noted: CDKL2, Nluc N; read-out: Probe EC50.
Assay [4] has as its target full-length kinase/Nluc fusion proteins (Homo sapiens, UniProt Q13546). To be noted: RIPK1, Nluc N (probe 1).
In assay [5] the target is full-length kinase/Nluc fusion proteins (Homo sapiens, UniProt P54762). To be noted: EPHB1, Nluc C; read-out: Probe EC50.
The target in assay [6] is full-length kinase/Nluc fusion proteins (Homo sapiens, UniProt P49841). The settings on record: GSK3B, Nluc N; read-out: Probe EC50.
Assay [7] addresses full-length kinase/Nluc fusion proteins (Homo sapiens, UniProt P29320). To be noted: EPHA3, Nluc C; read-out: Probe EC50.
Assay [8] concerns the target full-length kinase/Nluc fusion proteins (Homo sapiens, UniProt Q8IVW4). To be noted: CDKL3, Nluc N; read-out: Probe EC50.
Assay [9] deals with full-length kinase/Nluc fusion proteins (Homo sapiens, UniProt O94768). The settings on record: STK17B (NP_004217), Nluc orientation C; read-out: Probe EC50.
The target of assay [10] is full-length kinase/Nluc fusion proteins (Homo sapiens, UniProt Q04771). The settings on record: ACVR1, Nluc C; read-out: Probe EC50.
Assay [11] has as its target full-length kinase/Nluc fusion proteins (Homo sapiens, UniProt P50750). To be noted: CDK9, Nluc N; read-out: Probe EC50.
Assay [12] concerns the target full-length kinase/Nluc fusion proteins (Homo sapiens, UniProt Q00532). The settings on record: CDKL1, Nluc N; read-out: Probe EC50.
For assay [13], the target named is full-length kinase/Nluc fusion proteins (Homo sapiens, UniProt P24941). To be noted: CDK2, Nluc C; read-out: Probe EC50.

Sequence of full-length kinase/Nluc fusion proteins (Homo sapiens, UniProt Q92772) (Q92772 whole entry, the tested form may be a part): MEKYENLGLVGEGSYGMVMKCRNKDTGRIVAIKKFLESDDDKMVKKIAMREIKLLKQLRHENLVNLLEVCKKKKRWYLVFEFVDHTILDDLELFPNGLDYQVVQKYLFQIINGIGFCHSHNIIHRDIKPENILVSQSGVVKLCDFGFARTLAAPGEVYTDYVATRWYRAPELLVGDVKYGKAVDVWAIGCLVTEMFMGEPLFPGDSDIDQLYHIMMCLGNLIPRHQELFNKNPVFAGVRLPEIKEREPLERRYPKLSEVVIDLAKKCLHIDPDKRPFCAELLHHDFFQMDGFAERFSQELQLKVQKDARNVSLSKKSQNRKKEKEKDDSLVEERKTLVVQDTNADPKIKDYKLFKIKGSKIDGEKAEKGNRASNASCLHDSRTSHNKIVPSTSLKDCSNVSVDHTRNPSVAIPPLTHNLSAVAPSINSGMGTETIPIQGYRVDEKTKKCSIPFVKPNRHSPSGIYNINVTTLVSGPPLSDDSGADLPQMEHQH
Sequence of full-length kinase/Nluc fusion proteins (Homo sapiens, UniProt P49841) (P49841 whole entry, the tested form may be a part): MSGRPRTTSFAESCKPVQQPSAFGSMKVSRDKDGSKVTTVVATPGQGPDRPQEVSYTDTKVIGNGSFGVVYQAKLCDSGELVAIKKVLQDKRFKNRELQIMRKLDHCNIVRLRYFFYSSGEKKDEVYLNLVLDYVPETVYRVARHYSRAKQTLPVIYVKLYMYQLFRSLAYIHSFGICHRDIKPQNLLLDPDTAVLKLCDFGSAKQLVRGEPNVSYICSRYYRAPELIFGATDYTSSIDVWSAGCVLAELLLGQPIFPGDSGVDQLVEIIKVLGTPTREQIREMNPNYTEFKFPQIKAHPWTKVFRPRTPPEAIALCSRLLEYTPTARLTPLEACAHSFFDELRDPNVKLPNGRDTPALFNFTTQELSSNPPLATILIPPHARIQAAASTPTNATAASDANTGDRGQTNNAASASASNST
Sequence of full-length kinase/Nluc fusion proteins (Homo sapiens, UniProt Q00532) (Q00532 whole entry, the tested form may be a part): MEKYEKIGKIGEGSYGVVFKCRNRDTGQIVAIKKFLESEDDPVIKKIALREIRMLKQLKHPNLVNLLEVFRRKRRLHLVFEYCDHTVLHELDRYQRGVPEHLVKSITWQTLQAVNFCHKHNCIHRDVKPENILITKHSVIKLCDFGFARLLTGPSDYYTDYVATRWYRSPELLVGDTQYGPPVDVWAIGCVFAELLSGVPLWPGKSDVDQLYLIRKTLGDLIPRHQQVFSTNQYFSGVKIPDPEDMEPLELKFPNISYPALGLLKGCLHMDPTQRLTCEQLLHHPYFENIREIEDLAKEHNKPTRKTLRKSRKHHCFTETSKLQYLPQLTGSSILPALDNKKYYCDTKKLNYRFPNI
Sequence of full-length kinase/Nluc fusion proteins (Homo sapiens, UniProt Q04771) (Q04771 21-509): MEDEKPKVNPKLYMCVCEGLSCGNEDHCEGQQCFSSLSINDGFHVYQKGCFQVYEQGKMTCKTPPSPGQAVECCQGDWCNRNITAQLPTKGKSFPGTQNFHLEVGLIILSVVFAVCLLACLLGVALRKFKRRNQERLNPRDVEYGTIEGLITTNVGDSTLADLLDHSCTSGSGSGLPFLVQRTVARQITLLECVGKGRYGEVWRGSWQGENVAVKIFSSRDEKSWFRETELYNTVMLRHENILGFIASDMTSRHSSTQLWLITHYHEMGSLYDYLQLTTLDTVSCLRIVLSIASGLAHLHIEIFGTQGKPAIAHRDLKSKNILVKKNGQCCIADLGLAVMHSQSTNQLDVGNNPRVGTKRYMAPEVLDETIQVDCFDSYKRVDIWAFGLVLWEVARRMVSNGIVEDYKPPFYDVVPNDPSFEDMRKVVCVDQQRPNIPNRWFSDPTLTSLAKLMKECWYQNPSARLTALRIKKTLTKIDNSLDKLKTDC
Sequence of full-length kinase/Nluc fusion proteins (Homo sapiens, UniProt Q8IVW4) (Q8IVW4 whole entry, the tested form may be a part): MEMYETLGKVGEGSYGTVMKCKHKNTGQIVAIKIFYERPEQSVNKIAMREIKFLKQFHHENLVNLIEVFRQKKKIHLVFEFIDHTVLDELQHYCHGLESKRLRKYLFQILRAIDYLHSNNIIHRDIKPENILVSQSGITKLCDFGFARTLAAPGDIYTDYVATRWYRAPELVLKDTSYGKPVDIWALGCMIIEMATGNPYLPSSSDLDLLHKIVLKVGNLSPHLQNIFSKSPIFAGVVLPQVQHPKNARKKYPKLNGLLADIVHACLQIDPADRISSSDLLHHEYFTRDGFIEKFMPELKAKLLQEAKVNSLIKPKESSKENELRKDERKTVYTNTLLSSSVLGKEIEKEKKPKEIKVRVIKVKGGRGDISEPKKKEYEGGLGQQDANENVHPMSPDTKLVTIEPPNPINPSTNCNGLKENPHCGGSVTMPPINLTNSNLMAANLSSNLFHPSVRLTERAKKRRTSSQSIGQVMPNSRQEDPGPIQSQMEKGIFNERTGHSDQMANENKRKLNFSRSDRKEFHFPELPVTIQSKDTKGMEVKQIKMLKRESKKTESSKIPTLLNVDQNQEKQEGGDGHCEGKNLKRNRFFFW
Sequence of full-length kinase/Nluc fusion proteins (Homo sapiens, UniProt P54762) (P54762 18-984): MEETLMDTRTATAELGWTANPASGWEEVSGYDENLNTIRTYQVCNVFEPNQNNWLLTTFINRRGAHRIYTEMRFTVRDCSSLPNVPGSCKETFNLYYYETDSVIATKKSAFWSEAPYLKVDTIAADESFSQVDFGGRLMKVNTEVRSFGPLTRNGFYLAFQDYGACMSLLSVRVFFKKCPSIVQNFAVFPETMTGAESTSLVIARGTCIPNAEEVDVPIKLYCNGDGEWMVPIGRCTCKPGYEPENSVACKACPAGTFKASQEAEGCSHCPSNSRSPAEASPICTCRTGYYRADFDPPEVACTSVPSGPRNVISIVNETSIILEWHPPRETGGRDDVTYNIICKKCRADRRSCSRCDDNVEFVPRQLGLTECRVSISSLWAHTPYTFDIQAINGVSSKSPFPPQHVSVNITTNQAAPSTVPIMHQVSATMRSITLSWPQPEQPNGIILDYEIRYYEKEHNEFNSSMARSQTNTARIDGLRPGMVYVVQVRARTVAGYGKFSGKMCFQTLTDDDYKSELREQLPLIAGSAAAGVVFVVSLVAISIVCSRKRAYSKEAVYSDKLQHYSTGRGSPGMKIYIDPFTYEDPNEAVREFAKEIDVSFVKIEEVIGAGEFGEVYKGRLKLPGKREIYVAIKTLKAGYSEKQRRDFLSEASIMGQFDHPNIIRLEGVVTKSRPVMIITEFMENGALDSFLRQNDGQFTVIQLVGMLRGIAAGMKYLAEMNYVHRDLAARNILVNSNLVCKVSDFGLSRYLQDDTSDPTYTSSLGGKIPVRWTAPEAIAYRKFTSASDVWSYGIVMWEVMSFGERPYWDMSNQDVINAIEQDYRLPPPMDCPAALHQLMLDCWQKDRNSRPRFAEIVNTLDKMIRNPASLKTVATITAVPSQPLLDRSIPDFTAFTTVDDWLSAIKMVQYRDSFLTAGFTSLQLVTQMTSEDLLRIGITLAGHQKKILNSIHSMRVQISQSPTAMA
Sequence of full-length kinase/Nluc fusion proteins (Homo sapiens, UniProt O94768) (O94768 whole entry, the tested form may be a part): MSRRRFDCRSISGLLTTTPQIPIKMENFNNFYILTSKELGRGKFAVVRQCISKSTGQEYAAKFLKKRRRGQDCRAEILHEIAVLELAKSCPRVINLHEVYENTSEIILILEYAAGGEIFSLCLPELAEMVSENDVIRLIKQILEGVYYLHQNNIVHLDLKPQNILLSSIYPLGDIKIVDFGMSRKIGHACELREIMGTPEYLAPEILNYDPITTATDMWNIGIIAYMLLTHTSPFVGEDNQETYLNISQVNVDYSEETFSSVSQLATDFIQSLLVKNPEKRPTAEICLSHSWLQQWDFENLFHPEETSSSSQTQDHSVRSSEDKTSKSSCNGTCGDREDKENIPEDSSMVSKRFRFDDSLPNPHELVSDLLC
Sequence of full-length kinase/Nluc fusion proteins (Homo sapiens, UniProt P29320) (P29320 21-983): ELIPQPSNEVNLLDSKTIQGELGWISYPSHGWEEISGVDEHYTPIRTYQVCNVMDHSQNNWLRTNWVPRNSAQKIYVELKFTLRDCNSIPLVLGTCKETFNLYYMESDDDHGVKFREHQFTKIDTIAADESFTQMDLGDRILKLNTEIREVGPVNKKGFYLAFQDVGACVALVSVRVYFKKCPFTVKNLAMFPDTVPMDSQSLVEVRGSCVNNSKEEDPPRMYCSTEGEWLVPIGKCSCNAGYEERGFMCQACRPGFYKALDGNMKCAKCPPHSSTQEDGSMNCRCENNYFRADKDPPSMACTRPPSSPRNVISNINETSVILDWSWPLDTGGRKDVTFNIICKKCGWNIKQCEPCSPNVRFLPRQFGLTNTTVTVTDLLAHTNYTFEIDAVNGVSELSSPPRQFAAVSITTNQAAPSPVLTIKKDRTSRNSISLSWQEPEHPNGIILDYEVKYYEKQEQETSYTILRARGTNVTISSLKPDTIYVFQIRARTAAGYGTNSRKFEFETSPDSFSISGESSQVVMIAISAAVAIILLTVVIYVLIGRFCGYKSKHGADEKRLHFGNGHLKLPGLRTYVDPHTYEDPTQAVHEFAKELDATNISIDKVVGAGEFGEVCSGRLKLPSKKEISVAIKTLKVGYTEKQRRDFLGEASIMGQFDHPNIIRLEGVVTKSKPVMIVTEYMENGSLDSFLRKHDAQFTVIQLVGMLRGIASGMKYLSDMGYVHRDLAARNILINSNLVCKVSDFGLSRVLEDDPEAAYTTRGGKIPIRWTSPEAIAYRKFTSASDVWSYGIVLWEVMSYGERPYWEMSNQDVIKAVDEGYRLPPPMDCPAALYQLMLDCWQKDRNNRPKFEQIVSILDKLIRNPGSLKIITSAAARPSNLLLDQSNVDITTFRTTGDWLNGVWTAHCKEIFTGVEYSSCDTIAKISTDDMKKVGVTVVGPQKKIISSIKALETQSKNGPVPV
Sequence of full-length kinase/Nluc fusion proteins (Homo sapiens, UniProt P50750) (P50750 whole entry, the tested form may be a part): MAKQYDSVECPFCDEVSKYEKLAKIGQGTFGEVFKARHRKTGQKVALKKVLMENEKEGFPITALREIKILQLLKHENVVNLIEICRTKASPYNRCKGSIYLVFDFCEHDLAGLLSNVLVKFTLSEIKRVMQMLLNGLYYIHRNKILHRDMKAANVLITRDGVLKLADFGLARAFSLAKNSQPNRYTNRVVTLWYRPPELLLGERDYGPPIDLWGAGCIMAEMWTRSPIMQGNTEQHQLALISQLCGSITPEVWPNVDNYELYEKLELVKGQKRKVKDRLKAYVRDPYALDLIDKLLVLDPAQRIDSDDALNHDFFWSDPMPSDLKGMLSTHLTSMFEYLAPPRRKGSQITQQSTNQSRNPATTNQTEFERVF

`N#CCc1ccc(Nc2nc(NCCCCNC(=O)CCc3ccc4n3[B-](F)(F)[N+]3=C(c5ccc[nH]5)C=CC3=C4)cc(Nc3cc(C4CC4)[nH]n3)n2)cc1` [Energy Transfer Probe 1, 2-(4-((4-((4-aminobutyl)amino)-6-((5-cyclopropyl-1H-pyrazol-3-yl)amino)pyrimidin-2-yl)amino)phenyl)acetonitrile-NanoBRET 590]: the pEC50 was 7.00 in assay [1]; 6.52 in assay [2]; below 6.00 in assay [3]; below 6.00 in assay [4]; 6.70 in [5]; 6.70 in assay [6]. For the same compound, the pEC50 in assay [7] was 6.70; in [8] it was 7.00; in [9], 6.52; in [10] it was 6.52; in [11], 6.70; in [12], 6.70. Moreover, the pEC50 in assay [13] is 6.52.

Source of the values: article PMC5814754, “Quantitative, Wide-Spectrum Kinase Profiling in Live Cells for Assessing the Effect of Cellular ATP on Target Engagement” (Cell Chemical Biology, 2018).
